The text below walks through data of patent US20080070846A1, “TREATING ACUTE EXACERBATIONS OF ASTHMA USING A KETOLIDE” (Aventis Pharmaceuticals Inc, priority 2004, published 2008).

In data set [1] the test system is asthmatic patients. Particulars: cited from earlier work.
Data set [2] relates to children with an acute exacerbation of asthma. Particulars: oral prednisone, after 7 days; pediatric, mean age 8.0 years; cited from earlier work.
Data set [3] deals with adult patients with acute asthma. The note with it: after seven to ten days of oral prednisone; cited from earlier work.
The subject of data set [4] is adults with mild asthma exacerbations. Particulars: after 16 days of tapering oral prednisone; from 73% at onset of treatment; cited from earlier work.
Data set [5] has as its system adults following an acute asthma exacerbation. Particulars: oral prednisone, over seven to ten days; cited from earlier work.
Data set [6] deals with patients with acute exacerbations of asthma. The data set can be described thus: Asthma diary symptom scores in double-blind, randomized, placebo-controlled study. The data set is classed as in vivo, human. As for the experimental part: (§1) Patients are centrally randomized (1:1) using computer-generated codes to receive blinded treatment with either oral telithromycin 800 mg once daily (two 400 mg capsules) or placebo (two capsules identical to those containing active treatment) for ten days using a proprietary Interactive Voice Recognition System to balance the treatment assignments within each study center. The first clinic visit (Visit 1), occurring within 24 hours of initial presentation is considered to be the study baseline. At baseline, patients are randomized to telithromycin or placebo. Telephone contact is made at 24-72 hours post-randomization to review concomitant medications taken and adverse events. Visit 2 is at the end of treatment (Days 11-14), Visit 3 is a post-treatment visit (Day 28 [±3 days]), and Visit 4 is the final visit (Day 42 [±3 days]). At each visit, patients undergo respiratory examinations, pulmonary function tests, health outcome assessments, and have a review of adverse events. Vital signs and concomitant medications are also recorded. Spontaneous or induced sputum samples nasopharyngeal swabs, and serum for serology for atypical pathogens are collected at Visits 1 and 3. Patients receiving at least one dose of study treatment and having one primary efficacy endpoint value are included in the intention to treat (ITT) population.
(§2) Asthma symptoms are measured using a modified version of a previously published diary card symptom score in which patients rate the frequency and severity of symptoms on a 7-point Likert scale. [see Santanello N. C., Barber B. L., Reiss T. F, Friedman B. S., Juniper E. F., Zhang J., Measurement Characteristics of Two Asthma Symptom Diary Scales for Use in Clinical Trials. Eur. Respir. J. 1997; 10:646-651]. Daily patient diaries are also used to record asthma symptoms, study treatment dosing, albuterol use, and other concomitant medications. Patient's home PEF values are also recorded in triplicate twice daily.
(§3) Efficacy endpoints are analyzed using an analysis of covariance (ANCOVA) model using factors for treatment, study center (investigator), treatment-by-center interaction, and baseline as covariates. Longitudinal analyses are based on the average over the 6-week study period. The treatment group means and the between-group differences are estimated using the ANCOVA model and between-group tests are used to compare telithromycin with placebo. The primary efficacy assessment time point is Visit 2 (end of treatment; Days 11-14).
Improvements in asthma symptoms assessed by the patients during the ten days of study treatment are analyzed using analysis of variance (ANOVA)/ANCOVA. Time to 50% reduction of asthma symptoms is summarized for treatment groups using a Kaplan-Meier procedure.

Data set [7] has the same test system. The data set can be described thus: In-clinic pulmonary function tests (PEF, FEV1, FVC, FEF25-75%). The data set is classed as in vivo, human. On the procedure:
as §1
PEF in liter/min, FEV1 in liters, FVC in liters, and FEF25-75% in liters/sec are recorded at clinic visits and are performed according to American Thoracic Society (ATS) standards. [see American Thoracic Society. Standardization of Spirometry. Am. J. Respir. Crit. Care Med. 1995; 152: 1107-1136].
as §3
In the models used, treatment effect is estimated while adjusting for the factor of center and for baseline values as covariates. This adjusted model accounts for the difference in the number of patients enrolled at each center. All mean data for efficacy outcomes are presented as least square (LS) means as they result from this adjusted model.

The test system is the same in data set [8]. The data set can be described thus: Morning home PEF recorded on diary cards. The data set is classed as in vivo, human. The note with it: patient-recorded; placebo 66.8 L/min. On the procedure:
as §2

For data set [9] the test system is unchanged. The data set can be described thus: Tolerability and safety assessment (adverse-event recording). The data set is classed as in vivo, human. On the procedure:
Clinical safety is assessed in all patients by adverse-event recording and standard monitoring. Patients who receive at least one dose of […] and at least one safety assessment during treatment are considered evaluable for safety. All spontaneously reported adverse events and those identified by investigator observation are recorded and evaluated in terms of severity and causality.

The test system of data set [10] is C. pneumoniae. Particulars: mice with acute C. pneumoniae infection; cited from earlier work.

Turning to `CC[C@H]1OC(=O)[C@H](C)[C@@H](O[C@H]2C[C@@](C)(OC)[C@@H](O)[C@H](C)O2)[C@H](C)[C@@H](O[C@@H]2O[C@H](C)C[C@H](N(C)C)[C@H]2O)[C@](C)(OC)C[C@@H](C)C(=O)[C@H](C)[C@@H](O)[C@]1(C)O` [clarithromycin], the “severity of bronchial hyperresponsiveness” value in [1] is recorded as “reduce the severity of bronchial hyperresponsiveness”.

For the compound `C[C@]12C=CC(=O)C=C1CC[C@@H]1[C@@H]2C(=O)C[C@@]2(C)[C@H]1CC[C@]2(O)C(=O)CO` [prednisone], in data set [2], the “mean increase in FEF25-75%” value was 0.41 L/s, the “mean increase in FEV1” value is reported as 0.37 L, the “mean increase in FVC” value is recorded as 0.45 L and the “mean increase in PEF” value is 78 L/min. Further, the PEF improvement in [3] is listed as 46 L/min. In addition, the “PEF % predicted after treatment” value in data set [4] is reported as 85%. Besides, in [5], the “FEV1 increase, measured after bronchodilator use” value was 0.55 L and the “PEF increase, measured after bronchodilator use” value was 77 L/min.

Regarding `CC[C@H]1OC(=O)[C@H](C)C(=O)[C@H](C)[C@@H](O[C@@H]2O[C@H](C)C[C@H](N(C)C)[C@H]2O)[C@](C)(OC)C[C@@H](C)C(=O)[C@H](C)[C@H]2N(CCCCn3cnc(-c4cccnc4)c3)C(=O)O[C@]12C` [telithromycin], the “median time to a 50% reduction in symptoms” value in data set [6] (Kaplan-Meier, placebo 8 days, P=0.031) is listed as 5 days. Further, the “mean change in symptom score from baseline over the study period” value in data set [6] (entire 6-week observation period, 800 mg once daily for ten days) is −51%. The “mean percent reduction in symptom severity from baseline to the end of treatment” value in [6] (oral 800 mg once daily for ten days, added to usual care, ITT N=126) was −51%. Also, in data set [6] (placebo 8%, P=0.006), the “proportion of patients with symptom-free days during the treatment period” value turned out to be 16%. The “mean difference between treatments in change in symptom score over the study period” value in data set [6] (telithromycin vs placebo, 6-week period, 95% CI −24.75, −0.89%, P=0.035) was −13%. In data set [6] (telithromycin vs placebo, 95% CI −36.64, −7.90%, P=0.003), the “mean difference between treatments in percent reduction in symptom severity, baseline to end of treatment” value is listed as −22%. Further, in data set [7] (800 mg/day for ten days, N=126), the “Mean change from baseline to end of treatment, FEF25-75%” value is 0.85 L/s and the “Mean change from baseline to end of treatment, FVC” value is listed as 0.58 L. For the same compound, in [7] (800 mg/day for ten days, N=126, LS mean, Visit 2), the “Mean change from baseline to end of treatment, FEV1” value was 0.63 L. Moreover, the “Mean change from baseline to end of treatment, PEF” value in data set [7] (800 mg/day for ten days, N=126, in-clinic) worked out at 115.8 L/min. Also, the “mean improvement in FEV1, subgroup with infection at baseline” value in data set [7] (C. pneumoniae and/or M. pneumoniae infection at baseline, 61 telithromycin patients) amounted to 0.67 L. Besides, the “mean improvement in FEV1, subgroup without evidence of infection” value in data set [7] (no evidence of C. pneumoniae/M. pneumoniae infection, 44 telithromycin patients) is given as 0.65 L. Further, the “difference between treatments in FEV1 improvement, subgroup with infection at baseline” value in data set [7] (telithromycin vs placebo, 95% CI 0.11, 0.47 L, P=0.002) came to 0.29 L. In addition, the “difference between treatments in FEV1 improvement, subgroup without evidence of infection” value in data set [7] (telithromycin vs placebo, 95% CI −0.17, 0.52 L, P=0.309) was 0.18 L. The “Difference between treatments in mean change, FEV1” value in [7] (telithromycin vs placebo, P=0.001) turned out to be 0.29 L. The “Difference between treatments in mean change, FEF25-75%” value in [7] (telithromycin vs placebo, P=0.004) was 0.40 L/s. For the same compound, in data set [7] (telithromycin vs placebo, P=0.006), the “Difference between treatments in mean change, FVC” value amounted to 0.27 L. In data set [7] (telithromycin vs placebo, P=0.036), the “Difference between treatments in mean change, PEF” value is 26.9 L/min. Further, the “improvement in morning home PEF from baseline over the treatment period (mean)” value in data set [8] was 78.3 L/min. Moreover, the tolerability result in data set [9] (800 mg once daily for ten days) is listed as “well tolerated”. The “TEAEs considered possibly related to treatment, % of patients” value in data set [9] (132 patients evaluable for safety) stood at 20.5%. Besides, the “frequency of TEAEs” value in data set [9] (132 patients evaluable for safety, placebo 39.7%) turned out to be 38.6%. Further, the “diarrhea possibly related to treatment” value in [9] (placebo 3.8%) came to 9.8%. Besides, in data set [10], the “culture and PCR positivity in the lungs” value is “reduce culture and PCR positivity”.
